Experimental data taken from patent US20040024068A1, “Antimicrobial compounds” (priority 1998, published 2004).
In brackets after ≈: the same amount, converted by molar mass. Read-outs that look alike come from different tables or passages of the source.

Experiments:
[1] = system: E. coli strains AG100, AG100A, AGT11, AGT11K; test: Inhibition of growth rate in broth (liquid) culture; format: cell-based, Escherichia coli; settings: for IC50: Escherichia coli, 1 h, 1 h after addition
E. coli K-12 derivatives = test: microbe, parasite or virus in culture; format: cell-based, Escherichia coli; settings: for MIC: Escherichia coli
[2] = system: clinical strains of E. coli; test: Triclosan MIC of clinical strains from blood samples; format: cell-based; settings: Escherichia coli
[3] = system: E. coli K12 strain AG100 and triclosan resistant mutants; test: Triclosan MIC by agar serial dilution plates (2.0 fold steps), AG100 and mutants selected on triclosan; format: cell-based, Escherichia coli; settings: for MIC: agar dilution plates
[4] = system: E. coli strains AG100, AG100A, AGT11, AGT11K; test: Cell lysis in broth (liquid) culture (loss of absorbance with loss of viable cfu); format: cell-based, Escherichia coli
M. tuberculosis = settings: cited from earlier work
[5] = system: hypersusceptible host strain AG100A bearing pBR322-derived plasmids; test: Triclosan MIC encoded by plasmid clones in hypersusceptible host AG100A; format: cell-based; settings: Escherichia coli
M. smegmatis = settings: cited from earlier work
[6] = system: Mycobacterium smegmatis mc^2155 and InhA mutants; test: MIC on agar plates by 2-fold serial dilutions, M. smegmatis strains; format: cell-based; settings: for MIC: Mycolicibacterium smegmatis
[7] = system: E. coli strain AGT11 versus isogenic parent AG100; test: Isoniazid resistance of E. coli in the presence of 250 μM hydrogen peroxide; format: cell-based, Escherichia coli; settings: triclosan-resistant strain AGT11; 250 μM hydrogen peroxide present

SMILES: Oc1cc(Cl)ccc1Oc1ccc(Cl)cc1Cl [triclosan, 2,4,4′-trichlor-2′-hydroxydiphenyl ether]
- IC50 ([1]; read-out: Concentration of triclosan which inhibited growth rate 50%, strain AG100 (wild type), OD530): ~0.15 µg/mL (≈ 0.518 µM)
- IC50 ([1]; read-out: Concentration of triclosan which inhibited growth rate 50%, strain AG100A (ΔacrAB)): ~0.02 µg/mL (≈ 0.0691 µM)
- Concentration of triclosan which inhibited growth rate 90% ([1]; strain AG100 (wild type)): 0.6 µg/mL
- Concentration of triclosan which inhibited growth rate 90% ([1]; strain AG100A (ΔacrAB)): 0.05 µg/mL
- MIC (E. coli K-12 derivatives; AG100, span of Tables 3-5, read-out: MIC (determined on agar)): 0.17 to 0.28 µg/mL (≈ 0.587 to 0.967 µM)
- MIC (E. coli K-12 derivatives; strain AG100, mean of two to five determinations, read-out: MIC): 0.17 µg/mL (≈ 0.587 µM)
- MIC (E. coli K-12 derivatives; strain GC4488, read-out: MIC): 0.08 µg/mL (≈ 0.276 µM)
- MIC (E. coli K-12 derivatives; strain HH180, read-out: MIC): 0.07 µg/mL (≈ 0.242 µM)
- change of triclosan MIC by overexpression of acrAB (E. coli K-12 derivatives; strain AG100B (mutation in acrR) vs AG100): doubled
- MIC ([2]; read-out: mean triclosan MIC, multiply resistant clinical strains E3, E19, HO99 overexpressing marA or soxS): 0.33 µg/mL
- MIC ([2]; read-out: mean triclosan MIC, remaining 26 multiply resistant clinical strains overexpressing neither marA or soxS): 0.13 µg/mL
- MIC ([2]; read-out: mean triclosan MIC, 14 of 15 antibiotic-susceptible clinical strains (Series S)): 0.09 µg/mL
- MIC ([2]; read-out: triclosan MIC, multiply resistant clinical strain E10, overexpressing neither marA nor soxS): 0.38 µg/mL
- MIC ([2]; read-out: triclosan MIC, multiply resistant clinical strain HO 17, overexpressing marA): 0.15 µg/mL
- MIC ([2]; read-out: triclosan MIC, susceptible clinical strain S20, overexpressing marA): 0.27 µg/mL
- MIC ([3]; Escherichia coli, strain AG100 (wild-type)): 0.28 µg/mL (≈ 0.967 µM)
- MIC ([3]; Escherichia coli, strain AG100A (AG100 ΔacrAB::kan)): 0.018 µg/mL (≈ 0.0622 µM)
- MIC ([3]; Escherichia coli, strain AGT11 (AG100 fabI G93V)): 41 µg/mL (≈ 142 µM)
- MIC ([3]; Escherichia coli, strain AGT11K (AGT11 ΔacrAB::kan)): 2 to 4 µg/mL (≈ 6.91 to 13.8 µM)
- MIC of strain divided by MIC of AG1000 ([3]; strain AG100 (fabI none), inactivated locus acrAB): 0.063
- MIC of strain divided by MIC of AG1000 ([3]; strain AG100 (fabI none), inactivated locus mar): 0.71
- MIC of strain divided by MIC of AG1000 ([3]; strain AG100 (fabI none), inactivated locus none): 1
- MIC ([3]; strain AG100 (wild-type)): 0.28 ± 0.04 µg/mL (≈ 0.967 µM)
- MIC of strain divided by MIC of AG1000 ([3]; strain AGT7 (fabI mutation NI), inactivated locus none): 1.7
- MIC of strain divided by MIC of AG1000 ([3]; strain AGT7, inactivated locus acrAB): 0.071
- MIC of strain divided by MIC of AG1000 ([3]; strain AGT7, inactivated locus mar): 1.7
- MIC of strain divided by MIC of AG1000 ([3]; strain AGT8 (fabI mutation NI), inactivated locus none): 4
- MIC of strain divided by MIC of AG1000 ([3]; strain AGT8, inactivated locus acrAB): 0.25
- MIC of strain divided by MIC of AG1000 ([3]; strain AGT8, inactivated locus mar): 3.4
- MIC of strain divided by MIC of AG1000 ([3]; strain AGT9 (fabI mutation NI), inactivated locus none): 2.3
- MIC of strain divided by MIC of AG1000 ([3]; strain AGT9, inactivated locus acrAB): 0.32
- MIC of strain divided by MIC of AG1000 ([3]; strain AGT9, inactivated locus mar): 2.3
- MIC ([3]; strain AGT11K (AGT11 ΔacrAB::kan)): 3.2 µg/mL (≈ 11.1 µM)
- MIC of strain divided by MIC of AG1000 ([3]; strain AGT21 (fabI G93V), inactivated locus acrAB): 11.4
- MIC of strain divided by MIC of AG1000 ([3]; strain AGT21 (fabI G93V), inactivated locus mar): 145
- MIC of strain divided by MIC of AG1000 ([3]; strain AGT21 (fabI G93V), inactivated locus none): 145
- MIC of strain divided by MIC of AG1000 ([3]; strain AGT23 (fabI M159T), inactivated locus acrAB): 1.7
- MIC of strain divided by MIC of AG1000 ([3]; strain AGT23 (fabI M159T), inactivated locus none): 11.4
- MIC of strain divided by MIC of AG1000 ([3]; strain AGT25 (fabI F203L), inactivated locus acrAB): 0.57
- MIC of strain divided by MIC of AG1000 ([3]; strain AGT25 (fabI F203L), inactivated locus none): 4.6
- Concentration of triclosan which caused lysis ([4]; strain AG100 (wild type), within 2 h): 8 µg/mL
- amount of triclosan required to give lysis ([4]; strains AG100, AG100A and AGT11K together): 2 to 8 µg/mL
- susceptibility to triclosan (M. tuberculosis): not sensitive
- MIC ([5]; clones pLYT1 through pLYT10 (AGT11 library) in hypersensitive strain AG100A): ~4 µg/mL (≈ 13.8 µM)
- MIC ([5]; vector alone (pBR322) in AG100A): 0.005 to 0.02 µg/mL (≈ 0.0173 to 0.0691 µM)
- susceptibility to triclosan (M. smegmatis): susceptible
- MIC ([6]; MC^2155, mc^2155, triclosan in 7H9): 14 µg/mL (≈ 48.4 µM)
- MIC ([6]; MC^2155, mc^2155, triclosan in LB, mean (+/− S.D.) of 4-5 experiments): 0.61 µg/mL (≈ 2.11 µM)

SMILES: NNC(=O)c1ccncc1 [isoniazid]
- isoniazid resistance relative to isogenic parent AG100 [7]: several times
- MIC ([6]; MC^2155): 7 µg/mL (≈ 51 µM)
- relative MIC (S.D.) isoniazid (7H9) ([6]; strain mc^2155/pMD31::inhA^+): >64
- relative MIC (S.D.) isoniazid (7H9) ([6]; strain mc^2155 wild type): 1.0
